The source of these data is ChEMBL document CHEMBL3880429, “Aminopyrimidine compounds and their salts, process for preparation and pharmaceutical use thereof” (2012).

Active and inactive are the calls of the source. The calls are words filed in the database; no cut-off is given here.

Test [1] can be described thus: Antitumor activity against human K562 cells xenografted in BALB/cA nude mouse assessed as tumor growth at 150 mg/kg, po qd administered via gavage for 21 days relative to control. In kind it is functional. In general terms: In xenograft studies the graft and the host belong to different species.
Test [2] can be described thus: Antitumor activity against human K562 cells xenografted in BALB/cA nude mouse assessed as tumor growth at 37.5 mg/kg, po qd administered via gavage for 21 days relative to control. In kind it is functional.
A short description of test [3]: Cytotoxicity against human HL60 cells assessed as inhibition of cell proliferation after 48 hrs by MTT assay. In kind it is functional, cell-based. The settings on record: HL-60, 48 h. Background: Tetrazolium assays rely on reduction of a dye to a coloured formazan, in cell work by metabolically active cells.
Test [4] relates to K562. Nature of the test: Antitumor activity against human K562 cells xenografted in po dosed BALB/cA nude mouse assessed as tumor growth inhibition administered as qd via gavage for 21 days. In kind it is functional, organism-based.
Test [5] deals with K562. In words: Antitumor activity against human K562 cells xenografted in BALB/cA nude mouse assessed as extinction of tumor at 150 mg/kg, po qd administered via gavage for 21 days. In kind it is functional, organism-based.
Test [6] deals with Bcr/Abl fusion protein (Homo sapiens) (UniProt P00519+P11274). In words: Potency index, ratio of imatinib IC50 to compound IC50 for Bcr-Abl in human K562 cells. In kind it is cell-based.
Sequence of Bcr/Abl fusion protein (Homo sapiens) (P00519 whole entry, looked up, the tested form may be a part): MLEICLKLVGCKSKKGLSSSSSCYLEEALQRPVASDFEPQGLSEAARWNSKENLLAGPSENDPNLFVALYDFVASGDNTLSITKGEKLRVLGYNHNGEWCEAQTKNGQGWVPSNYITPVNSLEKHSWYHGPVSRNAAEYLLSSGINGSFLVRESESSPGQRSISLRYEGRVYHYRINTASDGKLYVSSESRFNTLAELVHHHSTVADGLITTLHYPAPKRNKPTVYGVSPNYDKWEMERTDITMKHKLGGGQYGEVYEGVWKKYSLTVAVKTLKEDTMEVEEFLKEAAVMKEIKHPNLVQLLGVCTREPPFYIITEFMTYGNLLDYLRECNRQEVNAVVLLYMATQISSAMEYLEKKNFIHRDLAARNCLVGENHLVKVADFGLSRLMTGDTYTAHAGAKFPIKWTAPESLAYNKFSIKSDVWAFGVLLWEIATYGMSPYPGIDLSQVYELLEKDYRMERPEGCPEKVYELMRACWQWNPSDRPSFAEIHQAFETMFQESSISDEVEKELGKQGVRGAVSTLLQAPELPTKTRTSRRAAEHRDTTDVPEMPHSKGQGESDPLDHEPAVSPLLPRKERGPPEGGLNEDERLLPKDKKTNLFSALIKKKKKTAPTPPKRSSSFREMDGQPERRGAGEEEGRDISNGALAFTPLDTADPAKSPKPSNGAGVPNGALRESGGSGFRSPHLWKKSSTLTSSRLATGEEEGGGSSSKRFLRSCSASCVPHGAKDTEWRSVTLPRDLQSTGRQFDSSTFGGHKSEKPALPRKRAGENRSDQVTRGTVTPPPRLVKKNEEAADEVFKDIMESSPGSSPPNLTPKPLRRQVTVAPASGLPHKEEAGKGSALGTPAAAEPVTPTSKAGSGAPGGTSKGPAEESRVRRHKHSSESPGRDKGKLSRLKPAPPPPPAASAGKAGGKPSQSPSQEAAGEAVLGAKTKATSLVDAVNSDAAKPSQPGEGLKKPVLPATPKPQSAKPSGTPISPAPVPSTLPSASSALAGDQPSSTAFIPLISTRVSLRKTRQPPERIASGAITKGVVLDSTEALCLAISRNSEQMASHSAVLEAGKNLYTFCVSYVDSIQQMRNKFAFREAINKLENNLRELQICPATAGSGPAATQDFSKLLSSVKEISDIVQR
Sequence of Bcr/Abl fusion protein (Homo sapiens) (P11274 whole entry, looked up, the tested form may be a part): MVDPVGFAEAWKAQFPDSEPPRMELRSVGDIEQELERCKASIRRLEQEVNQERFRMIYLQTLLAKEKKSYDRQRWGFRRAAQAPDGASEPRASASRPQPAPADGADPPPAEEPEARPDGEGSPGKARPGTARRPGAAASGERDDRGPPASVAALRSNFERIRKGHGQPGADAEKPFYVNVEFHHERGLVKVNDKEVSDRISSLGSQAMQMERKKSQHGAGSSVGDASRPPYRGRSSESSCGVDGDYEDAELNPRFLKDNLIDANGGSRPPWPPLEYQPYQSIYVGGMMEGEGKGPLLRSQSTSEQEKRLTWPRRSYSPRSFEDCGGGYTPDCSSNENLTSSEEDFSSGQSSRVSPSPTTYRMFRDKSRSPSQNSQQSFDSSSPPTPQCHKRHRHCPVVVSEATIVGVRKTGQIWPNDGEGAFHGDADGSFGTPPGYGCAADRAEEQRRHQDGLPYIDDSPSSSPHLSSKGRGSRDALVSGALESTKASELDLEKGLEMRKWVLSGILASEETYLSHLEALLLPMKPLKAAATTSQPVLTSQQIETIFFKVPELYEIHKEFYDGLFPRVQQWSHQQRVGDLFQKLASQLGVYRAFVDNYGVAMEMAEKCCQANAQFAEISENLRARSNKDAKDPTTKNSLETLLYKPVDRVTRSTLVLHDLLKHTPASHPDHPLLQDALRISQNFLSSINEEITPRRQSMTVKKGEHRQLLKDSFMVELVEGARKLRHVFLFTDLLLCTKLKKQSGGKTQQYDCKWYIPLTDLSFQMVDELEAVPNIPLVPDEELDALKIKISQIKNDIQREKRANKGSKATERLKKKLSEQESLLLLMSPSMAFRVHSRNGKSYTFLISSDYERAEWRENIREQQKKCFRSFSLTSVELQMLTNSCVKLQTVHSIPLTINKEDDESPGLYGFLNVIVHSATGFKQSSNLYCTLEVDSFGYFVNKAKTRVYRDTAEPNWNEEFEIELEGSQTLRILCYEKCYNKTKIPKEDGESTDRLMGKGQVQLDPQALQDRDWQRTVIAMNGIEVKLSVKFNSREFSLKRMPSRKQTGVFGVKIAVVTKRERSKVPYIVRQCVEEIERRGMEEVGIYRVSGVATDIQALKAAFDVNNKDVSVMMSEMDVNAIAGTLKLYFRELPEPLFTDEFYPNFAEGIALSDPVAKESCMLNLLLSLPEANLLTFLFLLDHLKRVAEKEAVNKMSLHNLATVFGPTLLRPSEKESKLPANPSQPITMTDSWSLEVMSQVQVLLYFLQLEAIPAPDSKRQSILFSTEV
A short description of test [7]: Ratio of IC50 for human HL60 cells to IC50 for Bcr-Abl in human K562 cells.

In general, T/C refers to the result in the treated group divided by that in the control group, in per cent. With `CS(=O)(=O)O.Cc1ccc(NC(=O)c2ccc(CN3CCN(C)CC3)cc2)cc1Nc1nccc(-c2cccnc2)n1` [IMATINIB MESYLATE], the T/C in test [1] was 34.2 - 117.7%.
The term IC50 denotes the concentration that gives 50% inhibition. With `CS(=O)(=O)O.Cc1ncc(NC(=O)c2ccc(CN3CCN(C)CC3)c(C(F)(F)F)c2)cc1Nc1nccc(-c2cccnc2)n1`, the results for the T/C in test [2] and in test [1] were 40.4% and 0%, respectively. Also, the IC50 in test [3] is 10 µM. Also, the TGI entry in test [4] is “Dose-dependent effect”. The outcome in test [5] was Active.
In the case of `CS(=O)(=O)O.Cc1ncc(NC(=O)c2ccc(CN3CCN(C)CC3)c(Cl)c2)cc1Nc1nccc(-c2cccnc2)n1`, the Ratio IC50 in test [6] was 4; in test [7], 125. For the same compound, the T/C in test [1] is given as 47.4%.
